The record followed here is patent US11559538B2, “Substituted 1,2-oxaborolan-2-ols as PDE4 inhibitors” (Pfizer Inc., priority 2018, dated 2023).

Molecules are shown by their SMILES.

The subject of one test is IL-13. The test is described as follows: Cytokine assay: IL-13 release from PHA-L stimulated human PBMCs. To be noted: Homo sapiens, PBMC, read-out: IL13 IC50. The class given is cell-based. In short, it runs like this:
(§1)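 Thawed human PBMCs (about 250,000 per well) preincubated with compound (about 10 μM down by 4-fold dilution, 0.25% DMSO), then stimulated with 3.5 μg/mL PHA-L for 48 h at 37 °C. IL-4, IL-13 and IFNγ in supernatant measured by HTRF; IC50 from four-parameter logistic fit.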

In test [1] the target is PDE4B (aa 152-484, Uniprot ID Q07343) (Homo sapiens (Human), UniProt Q07343). Put plainly: PDE4 SPA assay (scintillation proximity assay). The format is biochemical. Conditions: read-out: PDE4B2 IC50. In short, it runs like this: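 PDE4B (aa 152-484, ~81.6 pM) preincubated ~10 min with compound, then 1 μM ³H/unlabeled cAMP added in Tris pH 7.5, 1.3 mM MgCl2, 0.004% Brij 35, ~2% DMSO; 30 min at RT. Product captured on SPA beads and counted; IC50 by four-parameter logistic fit.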
For orientation: Scintillation proximity formats need no separation of bound from free tracer.

The test system of a further test is IFNγ. Put plainly: Cytokine assay: IFNγ release from PHA-L stimulated human PBMCs. The class given is cell-based. To be noted: Homo sapiens, PBMC. In short, it runs like this:
as §1

The subject of a further test is IL-4. Put plainly: Cytokine assay: IL-4 release from PHA-L stimulated human PBMCs. To be noted: Homo sapiens, PBMC, read-out: IL4 IC50. The class given is cell-based. In short, it runs like this:
as §1

Chain of PDE4B (aa 152-484, Uniprot ID Q07343) (Q07343 324-656): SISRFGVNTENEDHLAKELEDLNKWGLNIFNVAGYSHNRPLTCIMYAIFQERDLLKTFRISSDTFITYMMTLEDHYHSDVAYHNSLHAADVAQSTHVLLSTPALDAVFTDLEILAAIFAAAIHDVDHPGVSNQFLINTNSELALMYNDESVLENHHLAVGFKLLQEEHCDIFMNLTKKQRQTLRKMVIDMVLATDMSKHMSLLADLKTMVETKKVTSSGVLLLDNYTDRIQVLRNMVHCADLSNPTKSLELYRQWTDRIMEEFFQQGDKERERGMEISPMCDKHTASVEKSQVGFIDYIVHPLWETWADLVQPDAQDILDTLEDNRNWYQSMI

One may read the IC50 as the concentration that gives 50% inhibition. Take `CCOc1c(OC)ccc(-c2cccc(C3COB(O)C3)c2)c1F` (stereo not drawn) [Example 166, 4-(3′-ethoxy-2′-fluoro-4′-methoxy-[1,1′-biphenyl]-3-yl)-1,2-oxaborolan-2-ol]: the IC50 came out at 1010 nM with IL-13, 0.97 nM in test [1], 5.46 nM in the test on IFNγ and 49.2 nM in the test with IL-4.

In the case of `CCCOc1c(OC)ccc(-c2cncc(C3COB(O)C3)c2)c1OC` (stereo not drawn) [Example 167, 4-(5-(2,4-dimethoxy-3-propoxphenyl)pyridin-3-yl)-1,2-oxaborolan-2-ol], the half-maximal inhibitory concentration (IC50) turned out to be 2790 nM in the test on IL-13, 1.98 nM in test [1], 1.13 nM in the test with IFNγ and 1.37 nM with IL-4.

For `COc1ccc(-c2cncc(C3COB(O)C3)c2)cc1OC1CCSCC1` (stereo not drawn) [Example 169, 4-(5-(4-methoxy-3-((tetrahydro-2H-thiopyran-4-yl)oxy)phenyl)pyridin-3-yl)-1,2-oxaborolan-2-ol], the concentration for half-maximal inhibition (IC50) in the test on IL-13 was determined as 2020 nM; in test [1], 2.85 nM; in the test on IFNγ it was 5.84 nM; in the test with IL-4 it was 33 nM.

As to `CCOc1cc(-c2cc(C3COB(O)C3)cnc2CC)ccc1OC` (stereo not drawn) [Example 171, 4-(5-(3-ethoxy-4-methoxyphenyl)-6-ethylpyridin-3-yl)-1,2-oxaborolan-2-ol], the IC50 is 1350 nM with IL-13, 1.73 nM in test [1], 3.22 nM in the test on IFNγ and 2.43 nM with IL-4.

Turning to `CCOc1cc(-c2cccc(C3COB(O)C3)c2)ccc1SC` (stereo not drawn) [Example 172, 4-(3′-ethoxy-4′-(methylthio)-[1,1′-biphenyl]-3-yl)-1,2-oxaborolan-2-ol], the IC50 came to 1110 nM in the test on IL-13, 1.76 nM in test [1], 27.5 nM in the test with IFNγ and 269 nM with IL-4.

Regarding `COc1cnc(-c2cccc(C3COB(O)C3)c2)cc1OC` (stereo not drawn) [Example 174, 4-(3-(4,5-dimethoxypyridin-2-yl)phenyl)-1,2-oxaborolan-2-ol], the IC50 worked out at 1140 nM with IL-13, 8.57 nM in test [1], 14.4 nM in the test with IFNγ and 279 nM in the test with IL-4.

In the case of `COc1cc(-c2ccc(OC)c(OC3CCCC3)c2)nc(C2COB(O)C2)n1` (stereo not drawn) [Example 175, 4-(4-(3-(cyclopentyloxy)-4-methoxyphenyl)-6-methoxypyrimidin-2-yl)-1,2-oxaborolan-2-ol], the 50% inhibitory concentration (IC50) in the test with IL-13 amounted to 2310 nM; in test [1], 5.03 nM; in the test on IFNγ, 4.35 nM; in the test on IL-4, 14.3 nM.

For `CCCOc1cc(-c2cncc(C3COB(O)C3)c2)ncc1OC` (stereo not drawn) [Example 178], the IC50 amounted to 1280 nM with IL-13, 2.02 nM in test [1], 0.91 nM in the test on IFNγ and 1.81 nM with IL-4.

Turning to `CCOc1ccc(-c2cccc(C3COB(O)C3)c2)cc1OC` (stereo not drawn) [Example 182, 4-(4′-ethoxy-3′-methoxy-[1,1′-biphenyl]-3-yl)-1,2-oxaborolan-2-ol], the IC50 in the test with IL-13 was found to be 1330 nM; in test [1], 5.14 nM; in the test on IFNγ it was 19.6 nM; in the test with IL-4, 245 nM.

`COc1ccc(-c2cccc(C3COB(O)C3)c2)cc1OC1CCC1` (stereo not drawn) [Example 184, 4-(3′-cyclobutoxy-4′-methoxy-[1,1′-biphenyl]-3-yl)-1,2-oxaborolan-2-ol]: the concentration for half-maximal inhibition (IC50) in the test with IL-13 came to 1400 nM; in test [1] it was 0.8 nM; in the test with IFNγ, 4.48 nM; in the test with IL-4 it was 79.2 nM.

With `CCOc1cc(-c2nc(OC)cc(C3COB(O)C3)n2)ccc1OC` (stereo not drawn) [Example 185, 4-(2-(3-ethoxy-4-methoxyphenyl)-6-methoxypyrimidin-4-yl)-1,2-oxaborolan-2-ol], the IC50 was 2980 nM in the test on IL-13, 3.38 nM in test [1], 1.3 nM in the test with IFNγ and 5.75 nM in the test with IL-4.

As for `CCOc1ccc(-c2cncc(C3COB(O)C3)c2)cc1OC` (stereo not drawn) [Example 187, 4-(5-(4-ethoxy-3-methoxyphenyl)pyridin-3-yl)-1,2-oxaborolan-2-ol], the IC50 worked out at 1420 nM in the test with IL-13, 4.28 nM in test [1], 8.84 nM with IFNγ and 41.1 nM with IL-4.

In the case of `CCOc1c(OC)ccc(-c2cccc(C3COB(O)C3)c2)c1C#N` (stereo not drawn) [Example 191, 3-ethoxy-3′-(2-hydroxy-1,2-oxaborolan-4-yl)-4-methoxy-[1,1′-biphenyl]-2-carbonitrile], the IC50 in the test with IL-13 came to 1500 nM; in test [1], 3.84 nM; in the test with IFNγ it was 4.42 nM; in the test with IL-4 it was 176 nM.

Regarding `CCCOc1cc(-c2cc(CO)nc(C3COB(O)C3)n2)ccc1OC` (stereo not drawn) [Example 198, 4-(4-(hydroxymethyl)-6-(4-methoxy-3-propoxyphenyl)pyrimidin-2-yl)-1,2-oxaborolan-2-ol], the IC50 in the test on IL-13 was 1580 nM; in test [1] it was 14.3 nM; in the test with IFNγ, 4.85 nM; with IL-4, 14.2 nM.

On to `CCOc1c(OC)ccc(-c2cccc(C3COB(O)C3)n2)c1F` (stereo not drawn) [Example 199, 4-(6-(3-ethoxy-2-fluoro-4-methoxyphenyl)pyridin-2-yl)-1,2-oxaborolan-2-ol], for which the IC50 with IL-13 amounted to 1590 nM; in test [1] it was 10.4 nM; with IFNγ, 4.55 nM; in the test on IL-4, 90.4 nM.

On to `CCCOc1cc(-n2ccc(C3COB(O)C3)n2)ccc1OC` (stereo not drawn) [Example 200, 4-(1-(4-methoxy-3-propoxyphenyl)-1H-pyrazol-3-yl)-1,2-oxaborolan-2-ol], for which the IC50 with IL-13 turned out to be 1600 nM; in test [1] it was 12.9 nM; in the test on IFNγ, 14.1 nM; in the test on IL-4, 128 nM.

On to `COc1cc(-c2cncc(C3COB(O)C3)c2)ccc1SC` (stereo not drawn) [Example 201, 4-(5-(3-methoxy-4-(methylthio)phenyl)pyridin-3-yl)-1,2-oxaborolan-2-ol], for which the IC50 came to 1660 nM in the test on IL-13, 2.13 nM in test [1], 9.51 nM in the test with IFNγ and 105 nM in the test on IL-4.

On to `CCCOc1cc(-c2cc(C3COB(O)C3)cc(CO)n2)ccc1OC` (stereo not drawn) [Example 202, 4-(2-(hydroxymethyl)-6-(4-methoxy-3-propoxyphenyl)pyridin-4-yl)-1,2-oxaborolan-2-ol], for which the IC50 came to 1670 nM in the test with IL-13, 4.29 nM in test [1], 8.51 nM with IFNγ and 5.2 nM in the test on IL-4.

For `CCOc1cc(-c2cccc(C3COB(O)C3)n2)ccc1SC` (stereo not drawn) [Example 203, 4-(6-(3-ethoxy-4-(methylthio)phenyl)pyridin-2-yl)-1,2-oxaborolan-2-ol], the IC50 with IL-13 was found to be 2180 nM; in test [1], 15 nM; in the test on IFNγ, 114 nM; in the test with IL-4 it was 176 nM.

For `COc1cc(-c2cccc(C3COB(O)C3)c2)ccc1SC` (stereo not drawn) [Example 206, 4-(3′-methoxy-4′-(methylthio)-[1,1′-biphenyl]-3-yl)-1,2-oxaborolan-2-ol], the IC50 in the test on IL-13 was 1790 nM; in test [1] it was 2.65 nM; with IFNγ, 27.8 nM; in the test with IL-4 it was 113 nM.

As for `COc1ccc(-c2cc(C)cc(C3COB(O)C3)c2)cc1OC` (stereo not drawn) [Example 207, 4-(3′,4′-dimethoxy-5-methyl-[1,1′-biphenyl]-3-yl)-1,2-oxaborolan-2-ol], the IC50 came out at 1800 nM with IL-13, 10.3 nM in test [1], 53.5 nM with IFNγ and 390 nM in the test on IL-4.

For `COc1ccc(-c2cc(C3COB(O)C3)ccn2)cc1OC1CCCC1` (stereo not drawn) [Example 210, 4-(2-(3-(cyclopentyloxy)-4-methoxyphenyl)pyridin-4-yl)-1,2-oxaborolan-2-ol], the IC50 was found to be 2390 nM in the test on IL-13, 1.92 nM in test [1], 2.4 nM in the test on IFNγ and 17.6 nM in the test with IL-4.

In the case of `CCCOc1cc(-c2nccc(C3COB(O)C3)n2)ccc1OC` (stereo not drawn) [Example 212, 4-(2-(4-methoxy-3-propoxyphenyl)pyrimidin-4-yl)-1,2-oxaborolan-2-ol], the IC50 was determined as 1900 nM in the test with IL-13, 2.27 nM in test [1], 3.29 nM in the test on IFNγ and 103 nM in the test on IL-4.

In the case of `CCCOc1c(OC)ccc(-c2cccc(C3COB(O)C3)n2)c1F` (stereo not drawn) [Example 213, 4-(6-(2-fluoro-4-methoxy-3-propoxyphenyl)pyridin-2-yl)-1,2-oxaborolan-2-ol], the IC50 in the test on IL-13 is 1980 nM; in test [1] it was 6.32 nM; with IFNγ it was 3.36 nM; with IL-4, 80.9 nM.

As to `CCCOc1c(OC)ccc(-c2cncc(C3COB(O)C3)n2)c1F` (stereo not drawn) [Example 215, 4-(6-(2-fluoro-4-methoxy-3-propoxyphenyl)pyrazin-2-yl)-1,2-oxaborolan-2-ol], the IC50 with IL-13 was found to be 2050 nM; in test [1] it was 2.58 nM; with IFNγ, 2.18 nM; in the test on IL-4 it was 62.7 nM.

Regarding `CCOc1ccc(-c2cncc(C3COB(O)C3)c2)c(F)c1OC` (stereo not drawn) [Example 217, 4-(5-(4-ethoxy-2-fluoro-3-methoxyphenyl)pyridin-3-yl)-1,2-oxaborolan-2-ol], the IC50 is 2070 nM with IL-13, 5.5 nM in test [1], 10.3 nM in the test on IFNγ and 20.5 nM in the test on IL-4.

For the molecule `CCCOc1cc(-c2cc(C3COB(O)C3)cnc2C)cnc1OC` (stereo not drawn) [Example 218, 4-(6′-methoxy-2-methyl-5′-propoxy-[3,3′-bipyridin]-5-yl)-1,2-oxaborolan-2-ol], the IC50 worked out at 2840 nM with IL-13, 1.45 nM in test [1], 2.3 nM in the test on IFNγ and 3.24 nM in the test on IL-4.
